Test results reported in article PMC8599855, “Detection of cancer stem cells by EMT-specific biomarker-based peptide ligands” (Scientific Reports, 2021).
Like-named read-outs stand apart in the source and are kept apart here.

System: SAS cells
Assay: AlamarBlue cell viability assay
Assay type: cell-based, human
Settings: for IC50: Homo sapiens, AlamarBlue
Experimental: Figure 3 In vitro induction of EMT and stemness with Unc0642/IR. (a) SAS cells were treated with indicated concentration of Unc0642 and Unc0642 + 2 Gy of radiation for 72 h respectively. Cell viability was assessed by AlamarBlue assay. All data were normalized to cells without treatment. Data are presented as mean ± SD. IC50 was calculated using SigmaPlot12 software. (b) Western blot analysis of CSC and EMT markers in SAS cells treated with different concentration of Unc 0642 (1.25 and 10 µM) and different dose of radiation (2 and 4 Gy) respectively. Internal control: b-actin. Right graph: the quantification of protein expression levels normalized against b-actin levels in each sample. *p < 0.05; **p < 0.01 by Student’s t-test. The blots were cropped from different parts of the same gel. The original blots and all replicates are presented in Supplementary Fig. 4.
SAS-wt, SAS-EGFP-Fluc and SAS-E2-crimson-P2A::ttksr39 cells were seeded in a 96-well cell culture plate at the density of 5x10^3 cells/well overnight and incubated with serial dilutions of Unc0642 (the concentration of Unc0642 was 0.625, 1.25, 2.5, […], 5, 10, 20, 40, 80 μM respectively in culture medium). Plates were then incubated 48 hours at 37 °C under 5% CO2. Relative cell viabilities were determined by a AlamarBlue assay. 10% v/v of AlamarBlue (Serotec, Oxon, UK) was added into each well and the well containing culture medium without cells served as negative controls. Absorbance was measured at 570 nm against a reference wavelength at 600 nm using a microplate reader (Tecan, Infinite 200 pro, Zürich, Switzerland) after incubation for 24 h at 37°C. Results were presented as the percentage of AlamarBlue reduction and were corrected to background values of negative controls. IC50 values were calculated from a log([drug]) versus normalized response curve fit using SigmaPlot12.

Q: For `COc1cc2c(NC3CCN(C(C)C)CC3)nc(N3CCC(F)(F)CC3)nc2cc1OCCCN1CCCC1` [Unc0642], which “Effect on cell proliferation at the peak dose” value (1.25 μM Unc0642, single treatment or combined with IR, SAS cells) is on record?
A: could induce cell proliferation

Q: And the IC50 (SAS cells exposed to Unc0642 alone for 72 h, normalized to untreated cells, SigmaPlot12 fit, read-out: IC50 (50% inhibition concentration), cell viability)?
A: 12.1 µM

Q: And the IC50 (SAS cells, Unc0642 combined with 4 Gy of IR, 72 h, read-out: IC50, cell viability, combined with IR)?
A: 4.79 µM
